Values joined by “and” are separate entries in the source; they are usually repeats but may differ in a detail not shown here. Equal values may be shown once.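 Following 48 hours of exposure in 96-well plates, responses at five concentrations were used to interpolate endpoints linearly. GI50 is the concentration that inhibits growth by half. Definition used: TGI = concentration required for complete inhibition of growth.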

Test systems include SR leukemia; 786-0 renal; HL-60(TB) leukemia; HCT-15 colon; EKVX NSCLC; BT-549 breast; A549 NSCLC; SF-295 CNS; CCRF-CEM leukemia; MOLT-4 leukemia.
Holding throughout (experiment): NCI anticancer screen, dose series, 48 h

Consider `N#C[Se]CCN1C(=O)c2ccccc2C1=O`, for which the GI50 in the experiment with SR leukemia is 3.21 µM; in the experiment with 786-0 renal it was 2.1 µM; in the experiment with HL-60(TB) leukemia, 2230 nM; in the experiment with HCT-15 colon, 3.58 µM; in the experiment on EKVX NSCLC it was 2880 nM; with BT-549 breast, 1.66 µM. Also, the GI50 with A549 NSCLC is 2550 nM; with SF-295 CNS, 1.65 µM; in the experiment on CCRF-CEM leukemia it was 934 nM; in the experiment with MOLT-4 leukemia it was 2010 nM. In addition, the TGI with SR leukemia was determined as 23.9 µM; in the experiment on 786-0 renal it was 5.09 µM; in the experiment on HL-60(TB) leukemia, 5.71 µM; in the experiment on HCT-15 colon it was 14.7 µM; in the experiment on EKVX NSCLC it was 10.3 µM; in the experiment with BT-549 breast, 3.53 µM. For the same compound, the TGI was 8.93 µM in the experiment with A549 NSCLC, 3.7 µM in the experiment on SF-295 CNS, 30.3 µM with CCRF-CEM leukemia and 23.9 µM with MOLT-4 leukemia.

`Cn1cc(-c2ccc3c(c2)ncn3-c2cc(NS(=O)(=O)C3CC3)cc(-c3ccc(F)cc3F)c2)cn1`: the GI50 with SR leukemia was 6 µM; in the experiment on 786-0 renal, 6.05 µM; in the experiment on HL-60(TB) leukemia, 11900 nM; with HCT-15 colon, 7.4 µM; in the experiment on EKVX NSCLC, 21300 nM; in the experiment with BT-549 breast, 4.22 µM. Besides, the GI50 was 9010 nM with A549 NSCLC, 8.18 µM with SF-295 CNS, 7500 nM in the experiment with CCRF-CEM leukemia and 2800 nM in the experiment with MOLT-4 leukemia. The TGI in the experiment on SR leukemia is above 100 µM; in the experiment with 786-0 renal, above 100 µM; with HL-60(TB) leukemia, 45.4 µM; in the experiment on HCT-15 colon it was above 100 µM; in the experiment with EKVX NSCLC, above 100 µM; with BT-549 breast, 56.7 µM. Further, the TGI in the experiment with A549 NSCLC is above 100 µM; in the experiment on SF-295 CNS, 37.2 µM; in the experiment with CCRF-CEM leukemia it was above 100 µM; with MOLT-4 leukemia, above 100 µM.

Consider `COc1ccc(-n2c(=O)c3ccccc3n(Cc3ccc(C(=O)NO)cc3)c2=O)cc1`, for which the GI50 is 2.86 µM in the experiment on SR leukemia; 2.53 µM with 786-0 renal; 3510 nM with HL-60(TB) leukemia; 3.22 µM with HCT-15 colon; 1920 nM with EKVX NSCLC; 2.08 µM in the experiment on BT-549 breast. Further, the GI50 was 4100 nM with A549 NSCLC, 1.81 µM with SF-295 CNS, 2800 nM in the experiment on CCRF-CEM leukemia and 3210 nM with MOLT-4 leukemia. Besides, the TGI in the experiment on SR leukemia was above 100 µM; in the experiment with 786-0 renal, 7.09 µM; in the experiment with HL-60(TB) leukemia, above 100 µM; in the experiment with HCT-15 colon, 16.2 µM; with EKVX NSCLC it was 4.31 µM; with BT-549 breast, 4.91 µM. Further, the TGI in the experiment on A549 NSCLC is 16.3 µM; with SF-295 CNS, 3.54 µM; in the experiment on CCRF-CEM leukemia, above 100 µM; in the experiment on MOLT-4 leukemia, above 100 µM.

On to `CN1CCN(C(=O)/C=C/c2ccc([N+](=O)[O-])o2)CC1`, for which the GI50 was 4.23 µM in the experiment with SR leukemia; 18.6 µM in the experiment on 786-0 renal; 10700 nM in the experiment on HL-60(TB) leukemia; 3.14 µM in the experiment on HCT-15 colon; 23200 nM with EKVX NSCLC; 10.1 µM in the experiment on BT-549 breast. The GI50 in the experiment with A549 NSCLC is 18800 nM; in the experiment on SF-295 CNS it was 27.9 µM; in the experiment with CCRF-CEM leukemia it was 2720 nM; in the experiment with MOLT-4 leukemia it was 10700 nM. In addition, the TGI with SR leukemia came to 75.1 µM; in the experiment on 786-0 renal, 36.7 µM; in the experiment on HL-60(TB) leukemia, 34 µM; in the experiment on HCT-15 colon, 14.9 µM; in the experiment with EKVX NSCLC, 87.6 µM; in the experiment on BT-549 breast, 21.8 µM. Also, the TGI in the experiment on A549 NSCLC was 41.5 µM; in the experiment with SF-295 CNS, above 100 µM; in the experiment with CCRF-CEM leukemia it was 27.9 µM; in the experiment on MOLT-4 leukemia, 93.4 µM.

Turning to `COc1ccc([C@@H]2[C@@H](Oc3ccccc3)C(=O)N2c2cc(OC)c(OC)c(OC)c2)cc1F`, the GI50 is 0.0778 µM with SR leukemia; 0.198 µM in the experiment with 786-0 renal; 240 nM in the experiment on HL-60(TB) leukemia; 0.155 µM in the experiment with HCT-15 colon; 465 nM in the experiment with EKVX NSCLC; 0.0342 µM with BT-549 breast. Besides, the GI50 with A549 NSCLC was 209 nM; in the experiment with SF-295 CNS it was 0.0785 µM; in the experiment on CCRF-CEM leukemia, 204 nM; with MOLT-4 leukemia, 345 nM. In addition, the TGI is above 100 µM with SR leukemia; above 100 µM in the experiment with 786-0 renal; 0.609 µM in the experiment with HL-60(TB) leukemia; above 100 µM in the experiment with HCT-15 colon; above 100 µM with EKVX NSCLC; above 100 µM in the experiment on BT-549 breast. In addition, the TGI in the experiment on A549 NSCLC, in the experiment on SF-295 CNS, in the experiment on CCRF-CEM leukemia and with MOLT-4 leukemia was above 100 µM throughout.

With `CNS(=O)(=O)Nc1nccc(Cc2c(C)c3ccc(Oc4ncccn4)cc3oc2=O)c1F`, the GI50 with SR leukemia was above 100 µM; with 786-0 renal it was above 85.9 µM; in the experiment on HL-60(TB) leukemia, 44.9 nM and 8.91 nM; in the experiment with HCT-15 colon it was above 25.7 µM; with EKVX NSCLC, 438 nM and 351 nM; in the experiment with BT-549 breast, 24.2 µM and > 10 µM. Also, the GI50 with A549 NSCLC was 674 nM and 1080 nM; with SF-295 CNS, 27.8 µM and > 10 µM; in the experiment with CCRF-CEM leukemia, above 100000 nM; with MOLT-4 leukemia, 53400 nM and > 10000 nM. The TGI with SR leukemia, in the experiment with 786-0 renal, in the experiment with HL-60(TB) leukemia, in the experiment on HCT-15 colon, in the experiment on EKVX NSCLC and in the experiment with BT-549 breast was above 100 µM throughout. In addition, the TGI with A549 NSCLC, in the experiment with SF-295 CNS, in the experiment with CCRF-CEM leukemia and in the experiment on MOLT-4 leukemia was above 100 µM each time.

In the case of `O=C1[C@H](Cc2ccc(O)cc2)N2C(=O)CCN(C(=O)NCc3ccccc3)[C@H]2CN1Cc1cccc2ccccc12`, the GI50 with SR leukemia was 3.19 µM; in the experiment with 786-0 renal, 3.15 µM; in the experiment on HL-60(TB) leukemia, 4840 nM; with HCT-15 colon, 15.5 µM; with EKVX NSCLC it was 3810 nM; with BT-549 breast, 3.01 µM. Moreover, the GI50 in the experiment on A549 NSCLC was 2660 nM; with SF-295 CNS, 3.22 µM; in the experiment on CCRF-CEM leukemia, 2190 nM; with MOLT-4 leukemia, 1670 nM. The TGI was above 54.1 µM with SR leukemia; above 46.8 µM in the experiment with 786-0 renal; 27.3 µM with HL-60(TB) leukemia; above 89.8 µM with HCT-15 colon; above 100 µM in the experiment on EKVX NSCLC; 22.6 µM with BT-549 breast. In addition, the TGI is above 50.6 µM with A549 NSCLC, 17.6 µM in the experiment with SF-295 CNS, above 53.1 µM in the experiment on CCRF-CEM leukemia and 54.1 µM in the experiment on MOLT-4 leukemia.

`CCOC(=O)C#Cc1c(C(=O)OCC)nnn1[C@@H]1O[C@H](COC)[C@@H](OC)[C@H]1OC`: the GI50 in the experiment with SR leukemia was 1.64 µM; in the experiment with 786-0 renal it was 13.3 µM; in the experiment on HL-60(TB) leukemia, 1980 nM; in the experiment with HCT-15 colon, 2.56 µM; in the experiment with EKVX NSCLC, 16300 nM; in the experiment on BT-549 breast, 13.1 µM. The GI50 is 20900 nM in the experiment on A549 NSCLC, above 100 µM in the experiment on SF-295 CNS, 1870 nM with CCRF-CEM leukemia and 1920 nM in the experiment with MOLT-4 leukemia. In addition, the TGI amounted to 4.66 µM in the experiment with SR leukemia; 26.7 µM in the experiment on 786-0 renal; 5.41 µM with HL-60(TB) leukemia; 6.66 µM with HCT-15 colon; 32.9 µM in the experiment on EKVX NSCLC; 26 µM with BT-549 breast. The TGI with A549 NSCLC was 40.4 µM; with SF-295 CNS, above 100 µM; with CCRF-CEM leukemia it was 4.93 µM; in the experiment with MOLT-4 leukemia it was 4.39 µM.

`O=S(=O)(Nc1ccccc1)c1ccc(C2CC3(Cl)C(Cl)=C(Cl)C2(Cl)C3(Cl)Cl)cc1` (stereo not given): the GI50 with SR leukemia was 2.08 µM; with 786-0 renal, 2.15 µM; with HL-60(TB) leukemia, 2420 nM; in the experiment with HCT-15 colon it was 3.13 µM; in the experiment on EKVX NSCLC, 3020 nM; in the experiment with BT-549 breast, 2.46 µM. In addition, the GI50 is 3110 nM in the experiment on A549 NSCLC, 2.21 µM with SF-295 CNS, 3240 nM in the experiment on CCRF-CEM leukemia and 2500 nM in the experiment on MOLT-4 leukemia. In addition, the TGI came to 5.2 µM with SR leukemia; 4.23 µM with 786-0 renal; 5.79 µM with HL-60(TB) leukemia; 10.2 µM in the experiment with HCT-15 colon; 8.37 µM with EKVX NSCLC; 5.85 µM in the experiment with BT-549 breast. Also, the TGI turned out to be 11 µM in the experiment on A549 NSCLC, 5.97 µM with SF-295 CNS, 11.9 µM in the experiment with CCRF-CEM leukemia and 6.84 µM with MOLT-4 leukemia.

The record behind these values is PubChem BioAssay (NCI).
